Results: patent publication US7410755B2, “ADP detection using an enzyme-coupled reaction” (Discoverx, priority 2005, dated 2008)

Molecular target: Protein Kinase A (PKA) (Homo sapiens, UniProt P17612)
Conditions: read-out: Km of ATP for PKA; Kemptide substrate, PKA (Upstate), 30° C. for 1 hour; fitted to Michaelis-Menten equation; FIG. 4
Source text: In this second example, kinase reaction, the activity of PKA is characterized further. In this experiment, the kinetics of ATP on PKA activity was examined by measuring the rate of kinase activity at varying concentration of ATP. The results of this assay were fitted to the Michaelis-Menten equation so that the Km (Michaelis-Menten constant) of ATP for PKA could be determined.
To perform a protein kinase assay using the ADP Detection Assay, the assay reagents were thawed at room temperature for several hours.
Low salt assay buffer (LS ASB) was used to dilute all reagents in the kinase reaction and consisted of 15 mM Hepes, 20 mM NaCl, 1 mM EGTA, 0.02% Tween 20, 10 mM MgCl2, 0.1% bovine gamma globulin at pH 7.4. Substrate reagent was generated containing 800 μM Kemptide substrate. […] PKA kinase (Upstate) was diluted to give a reagent of 20 ng/ml. […]
To detect the generation of ADP as a result of kinase activity, 10 μ ADP Substrate Reagent was added followed immediately by 20 μl of ADP Enzyme Reagent. […] Assay signal was measured with a Fluorocount® fluorescent plate reader (Packard) using 0.1 second integration with excitation and emission wavelengths at 530 and 590 nm respectively and a PMT voltage of 750 Volts.
The data was converted by dividing the signal measured by 60 to obtain the enzyme rate in RFU per minute. […]

Km: 22.3 µM
Compound: Nc1ncnc2c1ncn2[C@@H]1O[C@H](COP(=O)(O)OP(=O)(O)OP(=O)(O)O)[C@@H](O)[C@H]1O [ATP]
